Assays:
Assay in all cases: radiometric filter-binding kinase assay, Kinase HotSpot
Details in all cases: compound 0.5 µM; ATP 10 µM
GRK5 (human) = GRK5 (human) (UniProt P34947)
MAP4K5 (human) = MAP4K5 (human) (UniProt Q9Y4K4)
FER (human) = FER (human) (UniProt P16591)
ADRBK2 (human) = ADRBK2 (human) (UniProt P35626)
MAPKAPK3 (human) = MAPKAPK3 (human) (UniProt Q16644)
PTK2 (human) = PTK2 (human) (UniProt Q05397)
TEC (human) = TEC (human) (UniProt P42680)
PDGFRA (human) = PDGFRA (human) (UniProt P16234)
Chain of PDGFRA (human) (P16234 whole entry, looked up): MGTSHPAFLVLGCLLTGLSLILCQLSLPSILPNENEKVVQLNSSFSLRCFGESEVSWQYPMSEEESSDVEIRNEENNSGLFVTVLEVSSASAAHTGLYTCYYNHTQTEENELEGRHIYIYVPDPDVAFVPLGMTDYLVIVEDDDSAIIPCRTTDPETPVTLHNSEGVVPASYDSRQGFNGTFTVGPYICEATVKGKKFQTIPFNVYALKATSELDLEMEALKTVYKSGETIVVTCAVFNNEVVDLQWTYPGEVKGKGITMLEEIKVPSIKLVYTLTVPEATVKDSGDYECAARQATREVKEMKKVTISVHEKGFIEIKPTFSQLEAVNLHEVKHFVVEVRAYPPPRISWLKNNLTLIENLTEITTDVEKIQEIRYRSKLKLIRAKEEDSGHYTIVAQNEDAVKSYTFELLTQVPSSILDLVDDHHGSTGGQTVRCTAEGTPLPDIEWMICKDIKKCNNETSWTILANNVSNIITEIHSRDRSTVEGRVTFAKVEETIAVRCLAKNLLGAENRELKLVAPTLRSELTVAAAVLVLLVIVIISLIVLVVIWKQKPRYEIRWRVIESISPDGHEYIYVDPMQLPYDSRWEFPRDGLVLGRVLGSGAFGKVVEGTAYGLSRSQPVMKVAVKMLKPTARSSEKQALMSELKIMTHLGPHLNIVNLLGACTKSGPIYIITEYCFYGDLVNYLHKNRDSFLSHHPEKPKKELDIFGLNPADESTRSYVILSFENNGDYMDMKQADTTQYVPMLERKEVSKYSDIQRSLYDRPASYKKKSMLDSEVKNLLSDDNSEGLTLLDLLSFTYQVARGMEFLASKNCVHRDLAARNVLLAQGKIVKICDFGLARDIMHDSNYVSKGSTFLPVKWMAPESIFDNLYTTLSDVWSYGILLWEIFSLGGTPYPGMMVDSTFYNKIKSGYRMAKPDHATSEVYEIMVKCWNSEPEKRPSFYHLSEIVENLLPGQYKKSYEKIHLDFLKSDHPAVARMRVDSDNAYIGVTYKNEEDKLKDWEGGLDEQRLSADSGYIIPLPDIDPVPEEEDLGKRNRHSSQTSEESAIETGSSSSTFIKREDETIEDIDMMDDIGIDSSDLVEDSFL

DYRK3 (human) = DYRK3 (human) (UniProt O43781)
PRKCE (human) = PRKCE (human) (UniProt Q02156)
PLK1 (human) = PLK1 (human) (UniProt P53350)
Chain of PLK1 (human) (P53350 whole entry, looked up): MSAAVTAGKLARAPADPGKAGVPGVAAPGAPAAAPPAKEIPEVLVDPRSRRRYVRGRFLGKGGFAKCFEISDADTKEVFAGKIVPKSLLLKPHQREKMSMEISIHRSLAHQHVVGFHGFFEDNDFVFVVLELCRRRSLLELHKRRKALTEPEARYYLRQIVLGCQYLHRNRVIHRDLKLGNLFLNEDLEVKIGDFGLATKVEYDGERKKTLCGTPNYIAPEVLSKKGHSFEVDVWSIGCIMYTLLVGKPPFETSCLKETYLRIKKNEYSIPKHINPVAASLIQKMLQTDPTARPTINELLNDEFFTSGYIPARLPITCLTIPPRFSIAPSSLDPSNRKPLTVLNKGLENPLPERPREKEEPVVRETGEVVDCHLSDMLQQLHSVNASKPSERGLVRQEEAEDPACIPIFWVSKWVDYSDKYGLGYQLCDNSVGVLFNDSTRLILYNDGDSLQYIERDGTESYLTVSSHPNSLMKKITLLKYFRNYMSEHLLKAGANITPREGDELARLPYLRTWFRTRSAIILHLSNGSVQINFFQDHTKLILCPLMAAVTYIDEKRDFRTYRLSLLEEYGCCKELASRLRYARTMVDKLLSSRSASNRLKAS

PRKD1 (human) = PRKD1 (human) (UniProt Q15139)
ULK1 (human) = ULK1 (human) (UniProt O75385)
CSNK1E (human) = CSNK1E (human) (UniProt P49674)
Chain of CSNK1E (human) (P49674 whole entry, looked up): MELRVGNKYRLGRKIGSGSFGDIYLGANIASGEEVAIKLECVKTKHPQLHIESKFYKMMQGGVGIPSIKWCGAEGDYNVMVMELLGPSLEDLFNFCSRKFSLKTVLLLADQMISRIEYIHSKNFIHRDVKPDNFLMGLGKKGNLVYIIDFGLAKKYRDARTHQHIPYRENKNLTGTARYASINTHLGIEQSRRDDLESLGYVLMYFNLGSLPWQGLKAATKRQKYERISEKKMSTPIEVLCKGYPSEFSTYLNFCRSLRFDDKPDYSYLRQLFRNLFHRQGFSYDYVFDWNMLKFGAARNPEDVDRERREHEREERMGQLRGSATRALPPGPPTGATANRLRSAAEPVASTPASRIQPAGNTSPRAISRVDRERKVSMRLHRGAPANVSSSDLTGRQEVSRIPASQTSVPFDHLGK

ROS1 (human) = ROS1 (human) (UniProt P08922)
INSRR (human) = INSRR (human) (UniProt P14616)
AKT1 (human) = AKT1 (human) (UniProt P31749)
Chain of AKT1 (human) (P31749 whole entry, looked up): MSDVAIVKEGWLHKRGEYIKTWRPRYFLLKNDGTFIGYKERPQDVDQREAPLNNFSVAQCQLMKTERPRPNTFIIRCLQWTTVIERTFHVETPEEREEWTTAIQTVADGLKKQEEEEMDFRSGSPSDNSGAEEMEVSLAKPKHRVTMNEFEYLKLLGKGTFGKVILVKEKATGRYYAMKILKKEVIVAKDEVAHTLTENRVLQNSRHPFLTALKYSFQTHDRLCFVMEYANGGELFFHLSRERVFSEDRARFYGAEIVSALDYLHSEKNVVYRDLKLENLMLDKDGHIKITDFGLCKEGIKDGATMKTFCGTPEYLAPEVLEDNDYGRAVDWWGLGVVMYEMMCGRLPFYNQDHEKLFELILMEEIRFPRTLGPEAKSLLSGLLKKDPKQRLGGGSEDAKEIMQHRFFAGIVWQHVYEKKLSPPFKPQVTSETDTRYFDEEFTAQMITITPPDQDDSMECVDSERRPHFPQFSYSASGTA

MAP3K8 (human) = MAP3K8 (human) (UniProt P41279)
MYLK2 (human) = MYLK2 (human) (UniProt Q9H1R3)
Chain of MYLK2 (human) (Q9H1R3 whole entry, looked up): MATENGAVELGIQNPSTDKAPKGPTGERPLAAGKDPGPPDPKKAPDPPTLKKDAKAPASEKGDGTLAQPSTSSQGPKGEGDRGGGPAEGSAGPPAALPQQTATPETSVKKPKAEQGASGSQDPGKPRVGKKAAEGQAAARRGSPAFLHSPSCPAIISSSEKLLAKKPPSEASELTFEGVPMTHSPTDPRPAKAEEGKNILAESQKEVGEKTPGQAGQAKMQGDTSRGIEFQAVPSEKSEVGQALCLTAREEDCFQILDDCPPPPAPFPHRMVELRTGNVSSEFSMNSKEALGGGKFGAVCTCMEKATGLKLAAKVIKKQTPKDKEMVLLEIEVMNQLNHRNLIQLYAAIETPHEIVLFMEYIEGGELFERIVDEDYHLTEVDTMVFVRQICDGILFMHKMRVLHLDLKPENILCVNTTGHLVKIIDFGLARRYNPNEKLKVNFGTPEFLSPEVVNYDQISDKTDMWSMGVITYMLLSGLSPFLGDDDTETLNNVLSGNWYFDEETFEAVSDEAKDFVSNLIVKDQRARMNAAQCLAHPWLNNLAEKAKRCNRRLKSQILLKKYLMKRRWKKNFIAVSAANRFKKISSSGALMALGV

STK25 (human) = STK25 (human) (UniProt O00506)
EPHA5 (human) = EPHA5 (human) (UniProt P54756)
Chain of EPHA5 (human) (P54756 whole entry, looked up): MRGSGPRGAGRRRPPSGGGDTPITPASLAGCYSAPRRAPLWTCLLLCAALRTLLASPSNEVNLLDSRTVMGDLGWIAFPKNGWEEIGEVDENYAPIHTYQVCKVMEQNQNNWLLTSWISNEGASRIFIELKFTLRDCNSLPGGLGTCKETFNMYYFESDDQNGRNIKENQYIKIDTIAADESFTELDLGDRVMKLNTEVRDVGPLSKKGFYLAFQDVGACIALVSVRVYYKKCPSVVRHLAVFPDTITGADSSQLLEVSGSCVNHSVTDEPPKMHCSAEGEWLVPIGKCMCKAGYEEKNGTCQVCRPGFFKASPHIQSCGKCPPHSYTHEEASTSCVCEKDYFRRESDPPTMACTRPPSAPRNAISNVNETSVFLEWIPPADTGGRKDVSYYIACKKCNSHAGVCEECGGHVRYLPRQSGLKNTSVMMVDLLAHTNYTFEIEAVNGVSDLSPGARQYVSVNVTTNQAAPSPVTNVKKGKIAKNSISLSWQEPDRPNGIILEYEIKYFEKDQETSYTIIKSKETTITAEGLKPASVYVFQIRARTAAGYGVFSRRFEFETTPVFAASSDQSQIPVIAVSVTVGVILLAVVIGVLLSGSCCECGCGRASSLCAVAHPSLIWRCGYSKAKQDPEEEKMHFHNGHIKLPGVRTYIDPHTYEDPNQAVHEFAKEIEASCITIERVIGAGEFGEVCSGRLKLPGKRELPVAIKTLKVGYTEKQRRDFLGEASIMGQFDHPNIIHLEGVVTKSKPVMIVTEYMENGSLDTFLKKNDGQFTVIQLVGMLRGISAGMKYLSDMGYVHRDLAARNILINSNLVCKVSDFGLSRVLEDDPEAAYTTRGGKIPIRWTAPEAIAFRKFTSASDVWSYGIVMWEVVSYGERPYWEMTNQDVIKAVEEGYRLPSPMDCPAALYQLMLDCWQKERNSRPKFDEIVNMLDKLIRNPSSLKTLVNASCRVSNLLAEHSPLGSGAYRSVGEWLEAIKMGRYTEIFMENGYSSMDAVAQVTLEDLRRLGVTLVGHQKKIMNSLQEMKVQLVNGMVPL

EPHB2 (human) = EPHB2 (human) (UniProt P29323)
PAK6 (human) = PAK6 (human) (UniProt Q9NQU5)
MAP3K2 (human) = MAP3K2 (human) (UniProt Q9Y2U5)
CDK5 CDK5R1 p25 (human) = CDK5 CDK5R1 p25 (human) (UniProt Q00535+Q15078)
Chain of CDK5 CDK5R1 p25 (human) (Q00535 whole entry, looked up): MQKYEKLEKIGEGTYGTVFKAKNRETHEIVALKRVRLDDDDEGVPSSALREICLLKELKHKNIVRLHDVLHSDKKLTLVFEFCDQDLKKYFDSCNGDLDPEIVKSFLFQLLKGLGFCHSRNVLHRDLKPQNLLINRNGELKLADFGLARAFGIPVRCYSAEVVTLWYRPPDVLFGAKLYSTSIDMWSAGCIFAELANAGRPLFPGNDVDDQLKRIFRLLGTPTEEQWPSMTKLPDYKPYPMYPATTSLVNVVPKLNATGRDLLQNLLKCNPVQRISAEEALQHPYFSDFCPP
Chain of CDK5 CDK5R1 p25 (human) (Q15078 whole entry, looked up): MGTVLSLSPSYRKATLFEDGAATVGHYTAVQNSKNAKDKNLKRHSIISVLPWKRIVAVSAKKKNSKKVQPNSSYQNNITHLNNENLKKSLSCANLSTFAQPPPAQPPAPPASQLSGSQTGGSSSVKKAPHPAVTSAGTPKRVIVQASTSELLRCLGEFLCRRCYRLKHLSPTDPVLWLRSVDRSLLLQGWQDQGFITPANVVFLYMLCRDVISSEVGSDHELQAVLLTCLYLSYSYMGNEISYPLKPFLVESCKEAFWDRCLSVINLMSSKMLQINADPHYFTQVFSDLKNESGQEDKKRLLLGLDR

CSF1R (human) = CSF1R (human) (UniProt P07333)
SGK2 (human) = SGK2 (human) (UniProt Q9HBY8)
FLT3 (human) = FLT3 (human) (UniProt P36888)
PNCK (human) = PNCK (human) (UniProt Q6P2M8)
NEK3 (human) = NEK3 (human) (UniProt P51956)
NEK1 (human) = NEK1 (human) (UniProt Q96PY6)
PRKCB2 (human) = PRKCB2 (human) (UniProt P05771)
INSR (human) = INSR (human) (UniProt P06213)
MST4 (human) = MST4 (human) (UniProt Q9P289)
IKBKE (human) = IKBKE (human) (UniProt Q14164)
MUSK (human) = MUSK (human) (UniProt O15146)
EPHA8 (human) = EPHA8 (human) (UniProt P29322)
PRKCB1 (human) = PRKCB1 (human) (UniProt P05771)
CDC42BPA (human) = CDC42BPA (human) (UniProt Q5VT25)
ROCK2 (human) = ROCK2 (human) (UniProt O75116)
CSNK1G2 (human) = CSNK1G2 (human) (UniProt P78368)
KIT (human) = KIT (human) (UniProt P10721)

Structure (SMILES): Cn1cnc2cc3c(Nc4cccc(Br)c4)ncnc3cc21
- residual activity (GRK5 (human)): 109%
- residual activity (MAP4K5 (human)): 56.1%
- residual activity (FER (human)): 90.6%
- residual activity (ADRBK2 (human)): 89.9%
- residual activity (MAPKAPK3 (human)): 94.4%
- residual activity (PTK2 (human)): 108%
- residual activity (TEC (human)): 123%
- residual activity (PDGFRA (human)): 107%
- residual activity (DYRK3 (human)): 102%
- residual activity (PRKCE (human)): 87.8%
- residual activity (PLK1 (human)): 97.6%
- residual activity (PRKD1 (human)): 99.4%
- residual activity (ULK1 (human)): 113%
- residual activity (CSNK1E (human)): 90.3%
- residual activity (ROS1 (human)): 99.9%
- residual activity (INSRR (human)): 92.1%
- residual activity (AKT1 (human)): 89.1%
- residual activity (MAP3K8 (human)): 90.1%
- residual activity (MYLK2 (human)): 87.6%
- residual activity (STK25 (human)): 99%
- residual activity (EPHA5 (human)): 71.5%
- residual activity (EPHB2 (human)): 76.2%
- residual activity (PAK6 (human)): 95%
- residual activity (MAP3K2 (human)): 97.6%
- residual activity (CDK5 CDK5R1 p25 (human)): 88%
- residual activity (CSF1R (human)): 94.4%
- residual activity (SGK2 (human)): 104%
- residual activity (FLT3 (human)): 33.4%
- residual activity (PNCK (human)): 101%
- residual activity (NEK3 (human)): 88.2%
- residual activity (NEK1 (human)): 97.9%
- residual activity (PRKCB2 (human)): 95.4%
- residual activity (INSR (human)): 94.4%
- residual activity (MST4 (human)): 94.3%
- residual activity (IKBKE (human)): 98.7%
- residual activity (MUSK (human)): 85.3%
- residual activity (EPHA8 (human)): 85.4%
- residual activity (PRKCB1 (human)): 100%
- residual activity (CDC42BPA (human)): 93.2%
- residual activity (ROCK2 (human)): 88.5%
- residual activity (CSNK1G2 (human)): 89.2%
- residual activity (KIT (human)): 78.6%

Structure (SMILES): O=C1Cc2c([nH]c3ccc(Br)cc23)-c2ccccc2N1
- residual activity (GRK5 (human)): 97%
- residual activity (MAP4K5 (human)): 30.1%
- residual activity (FER (human)): 89.7%
- residual activity (ADRBK2 (human)): 109%
- residual activity (MAPKAPK3 (human)): 100%
- residual activity (PTK2 (human)): 94.3%
- residual activity (TEC (human)): 96.4%
- residual activity (PDGFRA (human)): 103%
- residual activity (DYRK3 (human)): 113%
- residual activity (PRKCE (human)): 96.9%
- residual activity (PLK1 (human)): 94.9%
- residual activity (PRKD1 (human)): 101%
- residual activity (ULK1 (human)): 93.8%
- residual activity (CSNK1E (human)): 103%
- residual activity (ROS1 (human)): 83.6%
- residual activity (INSRR (human)): 95.8%
- residual activity (AKT1 (human)): 99.9%
- residual activity (MAP3K8 (human)): 98.6%
- residual activity (MYLK2 (human)): 96.8%
- residual activity (STK25 (human)): 98.8%
- residual activity (EPHA5 (human)): 96.6%
- residual activity (EPHB2 (human)): 95.5%
- residual activity (PAK6 (human)): 97.8%
- residual activity (MAP3K2 (human)): 94.2%
- residual activity (CDK5 CDK5R1 p25 (human)): 64.8%
- residual activity (CSF1R (human)): 92.6%
- residual activity (SGK2 (human)): 98.9%
- residual activity (FLT3 (human)): 47.7%
- residual activity (PNCK (human)): 99.6%
- residual activity (NEK3 (human)): 96.2%
- residual activity (NEK1 (human)): 95.4%
- residual activity (PRKCB2 (human)): 102%
- residual activity (INSR (human)): 101%
- residual activity (MST4 (human)): 108%
- residual activity (IKBKE (human)): 89.8%
- residual activity (MUSK (human)): 87.6%
- residual activity (EPHA8 (human)): 101%
- residual activity (PRKCB1 (human)): 93.1%
- residual activity (CDC42BPA (human)): 99%
- residual activity (ROCK2 (human)): 84.6%
- residual activity (CSNK1G2 (human)): 102%
- residual activity (KIT (human)): 90.3%

Source: the kinase profiling compilation of Christmann-Franck et al. (2016)
